# Literature values as cited in patent US20090099252A1, “NOVEL L[…] AS THERAPEUTIC AGENTS” (priority 2007, published 2009).
# System: multi-drug resistant cell line SKVLB-1
# Details: background statement
smiles,measurement,value
"C=C1C[C@H](C)C[C@@H]2CC=C[C@@H](C/C=C\C(=O)O[C@H]([C@@H](O)/C=C/[C@@H]3CC(C)=CCO3)C[C@@H]3O[C@H]3[C@@H](O)C1)O2 [Laulimalide, laulimalide]",IC50,1200 nM
